Among the data in US10034886B2, “GLP-1 receptor modulators” (Celgene International II SÀRL, priority 2014, dated 2018) are EC50 values, retold here.

Read-outs that look alike come from different tables or passages of the source.

For orientation: EC50 means the concentration at which the effect is half-maximal.

The assay has as its target T1, GLP-1R (Homo sapiens, UniProt P43220).
T1 construct: host or cells: GLP-1R CRE-bla CHO-K1 cells
The assay can be described thus: EC20 GLP-1(9-36) PAM cAMP assay: dose response of compound in the presence of fixed concentration of GLP-1(9-36). The assay is classed as cell-based. Conditions: GLP-1R CRE-bla CHO-K1 cells, read-out: EC20 GLP-1(9-36) PAM EC50. Summed up: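 GLP-1R CRE-bla CHO-K1 cells treated 30 min at 37 °C with 12-point compound dose response plus fixed EC20 GLP-1(9-36), with IBMX, in HBSS/HEPES/0.1% BSA pH 7.4. Total cAMP measured by luminescent detection against standard curve; EC50 and Emax from non-linear regression.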

Where [1] appears, read: compound dose response with fixed concentration of GLP-1(9-36).
Setting [2] is: dose response of compound in presence of fixed concentration of GLP-1(9-36).

T1 sequence (P43220 24-463): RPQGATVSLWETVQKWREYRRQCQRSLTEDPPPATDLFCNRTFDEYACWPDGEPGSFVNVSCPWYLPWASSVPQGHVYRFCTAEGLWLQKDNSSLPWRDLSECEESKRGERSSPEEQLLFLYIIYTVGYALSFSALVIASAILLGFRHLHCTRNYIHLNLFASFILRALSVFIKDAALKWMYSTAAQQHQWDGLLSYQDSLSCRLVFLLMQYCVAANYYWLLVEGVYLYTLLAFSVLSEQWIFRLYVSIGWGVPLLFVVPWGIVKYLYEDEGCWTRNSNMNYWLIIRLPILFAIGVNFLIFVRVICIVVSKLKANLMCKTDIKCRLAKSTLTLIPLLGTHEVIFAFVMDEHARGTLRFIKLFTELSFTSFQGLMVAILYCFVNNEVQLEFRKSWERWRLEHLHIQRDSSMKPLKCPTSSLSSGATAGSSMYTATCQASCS
T1 sequence (P01275 100-127 partner limits assumed): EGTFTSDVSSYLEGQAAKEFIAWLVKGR

Turning to `CCCCCCCOc1ccc(-c2cnc(-c3ccc(C[C@H](NC(=O)c4ccc(C(C)(C)C)s4)C(=O)N[C@H]4C[C@H](N)C4)cc3)nc2)cc1` [Compound 1281], under setting [1], the EC50 was 2500 to 5000 nM. Take `CC[C@H]1CC[C@H](c2ccc(-c3cnc(-c4ccc(C[C@H](NC(=O)c5ccc(N(C)C)cc5)C(=O)O)cc4)nc3)cc2)CC1` [Compound 1380]: under setting [1], the 50% effective concentration (EC50) lay in the range of 800 to 2500 nM. As for `CCCCCCCOc1ccc(-c2cnc(-c3ccc(C[C@H](NC(=O)[C@H]4CC[C@H](C(C)(C)C)CC4)C(=O)N[C@H](C)C(=O)O)cc3)nc2)cc1` [Compound 833], the EC50 under setting [2] lay in the range of 5000 to 10000 nM. Take `CCc1ccc(/C=C/c2cnc(-c3ccc(C[C@H](NC(=O)c4ccc(C(C)(C)C)s4)C(=O)N4CC(C(=O)O)C4)cc3)nc2)cc1` [Compound 1092]: the EC50 under setting [2] was in the range of 800 to 2500 nM. With `CCOCCCCOc1ccc(-c2cnc(-c3ccc(C[C@H](NC(=O)c4ccc(C(C)(C)C)cc4)C(=O)NCCC(=O)O)cc3)nc2)cc1` [Compound 443], the EC50 under setting [2] is 800 to 2500 nM.

For the molecule `CCCCCCCOc1ccc(-c2cnc(-c3ccc(C[C@H](NC(=O)c4ccc(C(C)(C)C)cc4)C(=O)NC(C(=O)O)C(O)c4ccccc4)cc3)nc2)cc1` (stereo partly shown) [Compound 570], under setting [2], the EC50 was less than 800 nM. Consider `CC[C@H]1CC[C@H](c2ccc(-c3cnc(-c4ccc(C[C@H](NC(=O)c5ccc(C(C)(C)C)s5)C(=O)N[C@@H](CC(N)=O)C(=O)O)cc4)nc3)cc2)CC1` [Compound 1325], for which, under setting [1], the EC50 is less than 800 nM.

With `CCCCCCCOc1ccc(-c2cnc(-c3ccc(C[C@H](NC(=O)c4ccc(C(C)(C)C)cc4)C(=O)N[C@@H](CN)C(=O)O)cc3)nc2)cc1` [Compound 452], the EC50 under setting [2] was 2500 to 5000 nM. As for `CC(C)(C)c1ccc(C(=O)N[C@@H](Cc2ccc(-c3ncc(-c4nc(-c5cccc(Cl)c5)no4)cn3)cc2)C(=O)NCCC(=O)O)cc1` [Compound 758], the EC50 under setting [2] lay in the range of 2500 to 5000 nM.

On to `CCCCCCCOc1ccc(-c2cnc(-c3ccc(C[C@H](NC(=O)c4ccc(C(C)(C)C)cc4OC)C(=O)NC(C(=O)O)C(O)c4ccccc4)cc3)nc2)cc1` (stereo partly shown) [Compound 952], for which the EC50 under setting [2] lay in the range of 2500 to 5000 nM. Consider `C[C@@H](NC(=O)[C@H](Cc1ccc(-c2ncc(-c3ccc(C(=O)c4ccccc4)cc3)cn2)cc1)NC(=O)c1ccc(C(C)(C)C)s1)C(=O)O` [Compound 993], for which, under setting [2], the EC50 lay in the range of 2500 to 5000 nM. Regarding `CC(C)(C)c1ccc(C(=O)N[C@@H](Cc2ccc(-c3ncc(-c4ccc(-c5ccc(Cl)cc5)cc4F)cn3)cc2)C(=O)N2CC(C(=O)O)C2)s1` [Compound 1190], under setting [2], the EC50 is less than 800 nM.

For the molecule `CCCCCCCOc1ccc(-c2cnc(-c3ccc(C[C@H](NC(=O)c4ccc(C(C)(C)C)s4)C(=O)N[C@@H](CC(=O)N[C@@H](CO)C(=O)O)C(=O)O)cc3)nc2)cc1` [Compound 517], the 50% effective concentration (EC50) under setting [2] is less than 800 nM. With `CCCCCCCOc1ccc(-c2cnc(-c3ccc(C[C@H](NC(=O)c4ccc(C(C)(C)C)cc4)C(=O)N[C@@H](CC(=O)O)C(N)=O)cc3)nc2)cc1` [Compound 579], the EC50 under setting [2] was less than 800 nM.

Consider `CCCCCCCOc1ccc(-c2cnc(-c3ccc(C[C@H](NC(=O)c4ccc(C(C)(C)C)s4)C(=O)NC(C(=O)O)C(O)c4cscn4)cc3)nc2)cc1` (stereo partly shown) [Compound 903], for which the EC50 under setting [2] is 5000 to 10000 nM. Regarding `CCC[C@H]1CC[C@H](C2CCN(c3cnc(-c4ccc(C[C@H](NC(=O)c5ccc(C(C)(C)C)s5)C(=O)N[C@H](C)C(=O)O)cc4)nc3)CC2)CC1` [Compound 1437], the EC50 under setting [1] is less than 800 nM. For `CCCc1ccc(-c2ccc(-c3cnc(-c4ccc(C[C@H](NC(=O)c5ccc(CC(C)C)cc5)C(=O)N5CC(C(=O)O)C5)cc4)nc3)c(F)c2)cc1` [Compound 1407], under setting [1], the EC50 is less than 800 nM. For the molecule `CCCCCCCOc1ccc(-c2cnc(-c3ccc(C[C@H](NC(=O)c4ccc(C(C)(C)C)s4)C(=O)NCCN)cc3)nc2)cc1` [Compound 384], under setting [2], the EC50 lay within 5000 to 10000 nM.

Take `CC(C)(C)c1ccc(C(=O)N[C@@H](Cc2ccc(-c3ncc(-c4nc(CCc5ccccc5)no4)cn3)cc2)C(=O)NCCC(=O)O)cc1` [Compound 746]: the EC50 under setting [2] lay in the range of 2500 to 5000 nM. In the case of `CCCOc1ccc(-c2ccc(-c3cnc(-c4ccc(C[C@H](NC(=O)c5ccc(C(C)(C)C)s5)C(=O)N5CC(C(=O)O)C5)cc4)nc3)c(F)c2)cc1` [Compound 1331], the EC50 under setting [1] is less than 800 nM. As to `CCCC1CCC(N2CC=C(c3cnc(-c4ccc(C[C@H](NC(=O)c5ccc(C(C)(C)C)s5)C(=O)N5CC(C(=O)O)C5)cc4)nc3)CC2)CC1` (stereo partly shown) [Compound 1434], under setting [1], the concentration giving a half-maximal response (EC50) fell in the range of 5000 to 10000 nM. With `CCCCCCCOc1ccc(-c2cnc(-c3ccc(CC(NC(=O)c4ccc(C(C)(C)C)s4)C(=O)N[C@@H](Cc4c[nH]c5ccccc45)C(=O)O)cc3)nc2)cc1` (stereo partly shown) [Compound 432], under setting [2], the EC50 was less than 800 nM. As to `CCCCCCCOc1ccc(-c2cnc(-c3ccc(C[C@H](NC(=O)c4ccc(C(C)(C)C)s4)C(=O)N4CC(C(=O)NS(=O)(=O)CC(=O)OC)C4)cc3)nc2)cc1` [Compound 654, methyl (S)-2-(N-(1-(2-(5-(tert-butyl)thiophene-2-carboxamido)-3-(4-(5-(4-(heptyloxy)phenyl)pyrimidin-2-yl)phenyl)propanoyl)azetidine-3-carbonyl)sulfamoyl)acetate], the EC50 under setting [2] is less than 800 nM. In the case of `CC(C)(C)c1ccc(C(=O)N[C@@H](Cc2ccc(-c3ccc(-n4c5ccccc5c5ccccc54)cc3)cc2)C(=O)O)s1` [Compound 1440], under setting [1], the EC50 fell in the range of 5000 to 10000 nM. `CC(C)(C)c1ccc(C(=O)N[C@@H](Cc2ccc(-c3ncc(-c4ccc(C5CCOCC5)cc4)cn3)cc2)C(=O)N2CC(C(=O)O)C2)s1` [Compound 1180]: the EC50 under setting [2] lay in the range of 2500 to 5000 nM.

`CC(C)(C)c1ccc(-c2cnc(-c3ccc(C[C@H](NC(=O)c4ccc(C(C)(C)C)s4)C(=O)N[C@H]4CCC[C@H]4C(=O)O)cc3)nc2)cc1` [Compound 382]: the EC50 under setting [2] fell in the range of 800 to 2500 nM.

As to `CCCCCCCOc1ccc(-c2cnc(-c3ccc(C[C@H](NC(=O)c4ccc(C(C)(C)C)s4)C(=O)N4CC[C@H](C(=O)Nc5nnn[nH]5)C4)cc3)nc2)cc1` [Compound 885], the EC50 under setting [2] is 5000 to 10000 nM. As for `CCCCCCCOc1ccc(-c2cnc(-c3ccc(C[C@H](NC(=O)c4ccc(CCC)s4)C(=O)NC(C(=O)O)C(O)c4ccccc4)cc3)nc2)cc1` (stereo partly shown) [Compound 959], under setting [2], the EC50 was in the range of 800 to 2500 nM. For `CCCc1ccc(-c2ccc(-c3cnc(-c4ccc(C[C@H](NC(=O)c5ccc(C(C)(C)C)cc5)C(=O)N5CC(C(=O)O)C5)cc4)nc3)c(F)c2)cc1` [Compound 1399], the EC50 under setting [1] was less than 800 nM. With `CCCCCCCOc1ccc(-c2nnc(-c3ccc(C[C@H](NC(=O)c4ccc(C(C)(C)C)cc4)C(=O)N4CC(C(=O)O)C4)cc3)s2)cc1` [Compound 1551], under setting [1], the EC50 was 2500 to 5000 nM. In the case of `CCCCCCCOc1ccc(-c2cnc(-c3ccc(C[C@@H](NC(=O)c4ccc(C(C)(C)C)cc4)C(=O)N[C@@H](C)C(=O)O)cc3)nc2)cc1` [Compound 436], the EC50 under setting [2] was less than 800 nM. With `CCCCCCCOc1ccc(-c2cnc(-c3ccc(C[C@H](NC(=O)c4ccc(CCCC)cc4)C(=O)N4CC[C@H](C(=O)O)C4)cc3)nc2)cc1` [Compound 850], the EC50 under setting [2] was in the range of 2500 to 5000 nM. As for `CCCc1ccc(C2CCCN(c3cnc(-c4ccc(C[C@H](NC(=O)c5ccc(C(C)(C)C)s5)C(=O)N5CC(C(=O)O)C5)cc4)nc3)CC2)cc1` (stereo partly shown) [Compound 1507], the EC50 under setting [1] lay in the range of 800 to 2500 nM. The same measure, in the same setting: to `Cc1cccc(C)c1-c1ccc(-c2cnc(-c3ccc(C[C@H](NC(=O)c4ccc(C(C)(C)C)s4)C(=O)N4CC(C(=O)O)C4)cc3)nc2)c(F)c1` [Compound 1205] belongs less than 800 nM. Turning to `CCCCCCCOc1ccc(-c2cnc(-c3ccc(C[C@H](NC(=O)c4ccc(C(C)(C)C)cc4)C(=O)NC(C(=O)O)C(O)c4ccccc4)cc3)nc2)cc1` (stereo partly shown) [Compound 569], the EC50 under setting [2] was less than 800 nM. On to `CC(C)c1ccc(-c2cnc(-c3ccc(C[C@H](NC(=O)c4ccc(C(C)(C)C)s4)C(=O)N[C@H](C)C(=O)O)cc3)nc2)cc1` [Compound 1034], for which the 50% effective concentration (EC50) under setting [2] fell in the range of 2500 to 5000 nM. On to `CCCc1ccc(-c2ccc(-c3cnc(-c4ccc(C[C@H](NC(=O)c5ccc(C6CC6)cc5)C(=O)N5CC(C(=O)O)C5)cc4)nc3)c(F)c2)cc1` [Compound 1410], for which the EC50 under setting [1] was less than 800 nM. With `CCc1ccc(/C=C/c2cnc(-c3ccc(C[C@H](NC(=O)c4ccc(C(C)(C)C)s4)C(=O)N[C@H](C)C(=O)O)cc3)nc2)cc1` [Compound 1055], the EC50 under setting [2] was 2500 to 5000 nM. On to `CCC[C@H]1CC[C@H](C2CCN(c3cnc(-c4ccc(C[C@H](NC(=O)[C@H]5CC[C@H](C(C)(C)C)CC5)C(=O)N5CC(C(=O)O)C5)cc4)nc3)CC2)CC1` [Compound 1527], for which the EC50 under setting [1] is 800 to 2500 nM. Take `COCCc1ccc(C2CCN(c3cnc(-c4ccc(C[C@H](NC(=O)c5ccc(C(C)(C)C)s5)C(=O)N5CC(C(=O)O)C5)cc4)nc3)CC2)cc1` [Compound 1495]: the EC50 under setting [1] was 800 to 2500 nM. Regarding `CCC[C@H]1CC[C@H](C2CCN(c3cnc(-c4ccc(CC(NC(=O)c5ccc(C(C)(C)C)s5)C(=O)NS(=O)(=O)CC(=O)OC)cc4)nc3)CC2)CC1` (stereo partly shown) [Compound 1543], under setting [1], the EC50 was less than 800 nM. On to `CCC[C@H]1CC[C@H](C2CCN(c3cnc(-c4ccc(C[C@H](NC(=O)c5ccc(C(C)(C)C)s5)C(=O)N[C@H](C(=O)O)[C@@H](C)O)cc4)nc3)CC2)CC1` [Compound 1469], for which, under setting [1], the EC50 is less than 800 nM. On to `CCOc1cc(-c2cnc(-c3ccc(C[C@H](NC(=O)c4ccc(C(C)(C)C)s4)C(=O)N[C@H](C)C(=O)O)cc3)nc2)cc(C(F)(F)F)c1` [Compound 1036], for which, under setting [2], the EC50 was 2500 to 5000 nM. Take `CCCCCCCOc1ccc(-c2cnc(-c3ccc(C[C@H](NC(=O)c4ccc(C(C)(C)C)cc4)C(=O)NC(CC)C(=O)O)cc3)nc2)cc1` (stereo partly shown) [Compound 548]: under setting [2], the EC50 is less than 800 nM. Turning to `Cc1cc(-c2cnc(-c3ccc(C[C@H](NC(=O)c4ccc(C(C)(C)C)s4)C(=O)N4CC[C@H](C(=O)O)C4)cc3)nc2)ccc1OC(C)C` [Compound 1087], under setting [2], the EC50 is less than 800 nM. As for `CC1CCC(C2CCN(c3cnc(-c4ccc(C[C@H](NC(=O)c5ccc(C(C)(C)C)s5)C(=O)N5CC(C(=O)O)C5)cc4)nc3)CC2)CC1` (stereo partly shown) [Compound 1427], the EC50 under setting [1] was less than 800 nM.
